Values quoted from earlier work, collected in patent publication US20090298951A1, “Nontoxic Biocidal Composition And Method Thereof” (priority 2008, published 2009).

Conditions: 20° C.

## C/C=C/C=C/C(=O)[O-].[K+] [potassium sorbate, potassium (E,E)-hexa-2,4-dienoate]
  soluble in water: 58.2%
